Test results from patent US4361563A, “Pyridazinone-substituted benzimidazoles and salts” (priority 1978, dated 1982).
pEC50: −log10 of the molar value. Where a name gives a salt, the structure may show the parent alone.

Experiments:
cats = assay: Determination of the hypotensive and positive inotropic activity in the cat; assay type: in vivo; conditions: for change in vivo at 0.1 mg/kg / change in vivo at 0.5 mg/kg / change in vivo at 2 mg/kg: Felis catus, iv, read-out: Change of dp/dt in %
Method: TEST 2. DETERMINATION OF THE HYPOTENSIVE AND POSITIVE INOTROPIC ACTIVITY IN THE CAT
The tests were performed in cats which were anesthetized with pentobarbital sodium (40 mg/kg i.p.). The animals breathed spontaneously. The arterial blood pressure was measured in the aorta abdominalis by a Statham pressure transducer (P 23 Dc). The positive inotropic effect was determined by measuring the pressure in the left […] by means of a catheter tipmanometer (Millar PC 350 A). This contractility parameter dp/dtmax was registered by means of an analog differentiating circuit. The substances under test were injected into a vena femoralis. Physiological sodium […] solution or polydiol 200 was used as solvent.

thrombocyte aggregation = assay: Determination of the thrombocyte aggregation according to Born and Cross (collagen-provoked, platelet-rich plasma); assay type: cell-based, healthy test persons; conditions: collagen-induced aggregation
Method: TEST 1. DETERMINATION OF THE THROMBOCYTE AGGREGATION ACCORDING TO BORN AND CROSS [J. PHYSIOL. 170, 397 (1964)].
The thrombocyte aggregation was measured in platelet-rich plasma of healthy test persons. The decrease of the optical density was photometrically measured and recorded after addition of commercial collagen (Sigma, St. Louis, Mo., USA) which contained […] of collagen-fibrils per ml. The velocity of aggregation (Vmax) was determined by the angle of inclination of the density curve. The point of the curve, where the most light was transmitted, served for the determination of the optical density (o.d.). To provoke maximum aggregation, approximately 0.01 ml of the collagen solution was added to 1 ml of platelet-rich plasma.

[1] = Acute toxicity, single oral dose; assay type: in vivo; conditions: mouse, in vivo, po; read-out: Acute toxicity mg/kg p.o.
Method: (§1) The acute toxicity of the substances tested was determined in white mice after oral adminstration of a single dose (observation time: 14 days).

white mice = assay: Acute toxicity, single oral dose; assay type: in vivo; conditions: white mice, 14 days observation
Method: as §1

[2] = 0.5 mg/kg i.v., initial phase before decrease

Compound	Change of blood pressure, first value of the pair (before the slash) (cats; 0.1 mg/kg i.v.) [mgm Hg]	Change of blood pressure, second value of the pair (after the slash) (cats; 0.1 mg/kg i.v.) [mgm Hg]	Duration of action (cats; 0.1 mg/kg i.v.) [min]	Change of blood pressure, first value of the pair (before the slash) (cats; 0.5 mg/kg i.v.)	Change of blood pressure, second value of the pair (after the slash) (cats; 0.5 mg/kg i.v.) [mgm Hg]	Duration of action (cats; 0.5 mg/kg i.v.) [min]	change in vivo at 0.1 mg/kg (cats; 0.1 mg/kg i.v.) [%]	change in vivo at 0.5 mg/kg (cats; 0.5 mg/kg i.v.) [%]	pEC50 (thrombocyte aggregation)	LD50 at 336 h [1] [mg/kg]	other results
Cc1nc2cc(C3=NNC(=O)CC3C)ccc2n1Cc1ccccc1 (stereo not shown) [M, 1-Benzyl-2-methyl-5-(5-methyl-3-oxo-4,5-dihydro-2H-6-pyridazinyl)-benzimidazole]	-37	-33	> 62	-57 mgm Hg	-48	> 110	123	106			
Cc1nc2cc(C3=NNC(=O)CC3C)ccc2[nH]1 (stereo not shown) [Compound A, 2-Methyl-5(6)-(5-methyl-3-oxo-4,5-dihydro-2H-6-pyridazinyl)-benzimidazole]	-26	-24	> 24	-35 mgm Hg	-42	> 187	53	116	8.00	> 600	animals died (white mice; 600 mg/kg p.o.): 1 out of 3
CSc1nc2cc(C3=NNC(=O)CC3C)ccc2[nH]1 (stereo not shown) [F, 2-Methylmercapto-5(6)-(5-methyl-3-oxo-4,5-dihydro-2H-6-pyridazinyl)-benzimidazole]	-36	-40	> 28	-48 mgm Hg	-66	> 32	51	50			
COc1ccc(-c2nc3cc(C4=NNC(=O)C(C)C4)ccc3[nH]2)c(OC)c1 (stereo not shown) [O, 2-(2,4-Dimethoxy-phenyl)-5(6)-(4-methyl-3-oxo-4,5-dihydro-2H-6-pyridazinyl)-benzimidazole, reference compound]				+15 mgm Hg	6	2		10			
CC1CC(=O)NN=C1c1ccc2[nH]cnc2c1 (stereo not shown) [C, 5(6)-(5-Methyl-3-oxo-4,5-dihydro-2H-6-pyridazinyl)-benzimidazole]				-55 mgm Hg	-48	> 172		159	6.92		
Cc1nc2cc(C3=NNC(=O)C(C)C3)ccc2[nH]1 (stereo not shown) [N, 2-Methyl-5(6)-(4-methyl-3-oxo-4,5-dihydro-2H-6-pyridazinyl)-benzimidazole, reference compound]					3	22		23	6.00	> 250	animals died (white mice; 250 mg/kg p.o.): 0 out of 10
CC1CC(=O)NN=C1c1ccc2[nH]c(C(F)(F)F)nc2c1 (stereo not shown) [B, 2-Trifluoromethyl-5(6)-(5-methyl-3-oxo-4,5-dihydro-2H-6-pyridazinyl)-benzimidazole]	-65	-35	> 55	-49 mgm Hg	-43	> 99	91	143	7.00	> 450	animals died (white mice; 450 mg/kg p.o.): 0 out of 6
Cc1nc2cc(C3=NNC(=O)CC3C)ccc2n1CCC(C)C (stereo not shown) [L, 1-(3-Methyl-butyl)-2-methyl-5-(5-methyl-3-oxo-4,5-dihydro-2H-6-pyridazinyl)-benzimidazole]									7.30		
COc1ccc(-c2nc3cc(C4=NNC(=O)C(C)C4)ccc3[nH]2)cc1 (stereo not shown) [P, 2-(4-Methoxy-phenyl)-5(6)-(4-methyl-3-oxo-4,5-dihydro-2H-6-pyridazinyl)-benzimidazole, reference compound]				-10 mgm Hg	-10	1		9			Change of blood pressure, first value of the pair (before the slash) (cats; 2.0 mg/kg i.v.): -35 mgm Hg; Change of blood pressure, second value of the pair (after the slash) (cats; 2.0 mg/kg i.v.): -35 mgm Hg; Duration of action (cats; 2.0 mg/kg i.v.): 1 min; change in vivo at 2 mg/kg (cats; 2.0 mg/kg i.v.): 5%
CCCC(C)c1nc2cc(C3=NNC(=O)CC3C)ccc2[nH]1 (stereo not shown) [I, 2-(2-Pentyl)-5(6)-(5-methyl-3-oxo-4,5-dihydro-2H-6-pyridazinyl)-benzimidazole hydrochloride]	-10	-13	> 53	-28 mgm Hg	-33	> 52	83	103			
COc1ccc(-c2nc3cc(C4=NN(C)C(=O)C(C)C4)ccc3[nH]2)cc1 (stereo not shown) [Q, 2-(4-Methoxy-phenyl)-5(6)-(2,4-dimethyl-3-oxo-4,5-dihydro-2H-6-pyridazinyl)-benzimidazole, reference compound]				-12 mgm Hg	-12	11		-16			Change of blood pressure, first value of the pair (before the slash) (cats; 2.0 mg/kg i.v.): -40 mgm Hg; Duration of action (cats; 2.0 mg/kg i.v.): 3 min; change in vivo at 2 mg/kg (cats; 2.0 mg/kg i.v.): -26%
CC1CC(=O)NN=C1c1ccc2[nH]c(-c3ccccc3F)nc2c1 (stereo not shown) [D, 2-(2-Fluoro-phenyl)-5(6)-(5-methyl-3-oxo-4,5-dihydro-2H-6-pyridazinyl)-benzimidazole]					-10	> 69		107		> 600	animals died (white mice; 600 mg/kg p.o.): 0 out of 6
COc1ccc(-c2nc3cc(C4=NNC(=O)CC4C)ccc3n2C)cc1 (stereo not shown) [K, 1-Methyl-2-(4-methoxy-phenyl)-5-(5-methyl-3-oxo-4,5-dihydro-2H-6-pyridazinyl)-benzimidazole]				-28 mgm Hg	-34	> 40		50			
Cc1ccc(-c2nc3cc(C4=NNC(=O)CC4C)ccc3[nH]2)cc1 (stereo not shown) [H, 2-(4-Methyl-phenyl)-5(6)-(5-methyl-3-oxo-4,5-dihydro-2H-6-pyridazinyl)-benzimidazole]				-10 mgm Hg	-10	> 69		118		> 600	duration of decrease of blood pressure (cats; 0.5 mg/kg i.v., decrease after 1 minute): > 50 min; initial increase of blood pressure, first value of the pair (cats; [2]): 33 mgm Hg; initial increase of blood pressure, second value of the pair (cats; [2]): 18 mgm Hg; animals died (white mice; 600 mg/kg p.o.): 0 out of 6
COc1ccc(-c2nc3cc(C4=NNC(=O)CC4C)ccc3[nH]2)c(OC)c1 (stereo not shown) [Compound E, 2-(2,4-Dimethoxy-phenyl)-5(6)-(5-methyl-3-oxo-4,5-dihydro-2H-6-pyridazinyl)-benzimidazole]				-28 mgm Hg	-33	> 55		89			
COc1ccc(-c2nc3ccc(C4=NNC(=O)CC4C)cc3[nH]2)cc1 (stereo not shown) [G, 2-(4-Methoxy-phenyl)-5(6)-(5-methyl-3-oxo-4,5-dihydro-2H-6-pyridazinyl)-benzimidazole]		0	> 26	-18 mgm Hg	-18	> 72	23	64	7.10	~600	animals died (white mice; 600 mg/kg p.o.): 3 out of 6
